# Source: patent publication US8575340B2, “Purine derivatives and their pharmaceutical uses” (GlaxoSmithKline LLC, priority 2010, dated 2013)
# Key:
# Assay type in all cases: cell-based
# Interferon-α = assay: Induction of Interferon-α using cryopreserved human PBMCs; conditions: PBMC, 24 hours incubation, normalised to 1 μM resiquimod and DMSO, read-out: mean pEC50 for induction of Interferon-α (converted)
# Method: Assay for the Induction of Interferon-α using Cryopreserved Human Peripheral Blood Mononuclear Cells (PBMCs)
# Compounds were dissolved in DMSO. Serial 2-fold dilutions with DMSO were prepared and 0.25 μL dispensed into 384-well clear Greiner polypropylene plates.
# Blood samples of up to 200 mL were obtained from healthy human donors. Whole blood in 25 mL volumes was overlaid onto 15 mL Ficoll gradients in Leucosep tubes, and centrifuged at 1000 g for 20 minutes. Cells in the band at the plasma/histopaque interface were carefully removed and washed twice with PBS (centrifuged at 400 g for 5 min to harvest). The final pellet was resuspended in freezing medium (90% Heat-inactivated serum, 10% DMSO) to a cell concentration of 4×10^7 cells/mL. The resuspended cells were then cryopreserved (frozen) using a rate controlled freezer, and stored at −140° C. for up to 4 months.
# Incubation and Assay for Interferon-α
# Immediately prior to assay, vials of cryopreserved (frozen) PBMCs were thawed rapidly in a water bath at 37° C. A 1:10 dilution of the cells in trypan blue was prepared and counted. The PBMCs were then diluted in growth media [RPMI 1640 containing 10% fetal calf serum (invitrogen), Penicillin+[…] (Gibco cat. #25030-024, 1:50), L-Glutamine 2 mM, and 1000 units/mL recombinant human IFN-gamma (Preprotech catalogue #300-02)] to a density of 1×10^6 cells/mL, and 50 uL/well dispensed to 384-well clear Greiner polypropylene plates containing 0.25 μL DMSO or test compound in 0.25 μL DMSO. […] Plates were incubated for 24 hours at 37° C. in 5% CO2.
# A multi-isoform immunoassay was used to quantify IFN-α in PBMC supernatants. Rabbit polyclonal antibody against human IFN-α (catalogue number 31101, Stratech Scientific) was diluted 1:10000 in assay buffer (RPMI 1640 containing 10% fetal calf serum, Invitrogen) and 20 μL was added to each well of an MSD (Meso-Scale Discovery) single small-spot 384-well GAR (goat anti-rabbit antibody coated) plate. The plate was incubated for 1 hour at room temperature with vigorous shaking. Following three washes with PBS, 20 μL of cell supernatant were added to each well of the plate. The plate was then incubated for 1 hour at room temperature with vigorous shaking. A pair of monoclonal antibodies to IFN-α (catalogue numbers 21100 and 21112, Stratech Scientific) were labelled with sulfo-TAG (MSD), diluted 1:1000 in assay buffer and 20 μL added to each well of the plate. The plate was further incubated for 1 hour at room temperature with vigorous shaking. Following three washes with PBS, 30 μL of ×2 T buffer (MSD) was added to each well and the plate was read on an MSD Sector 6000 plate reader.
# Data were normalised to internal plate controls of 1 μM resiquimod (n=16) and DMSO (n=16). pEC50 values were derived by 4-parameter curve fit with IRLS in ActivityBase, from 11-point, two-fold serial dilution of test compounds.
# IFN-α = assay: Induction of Interferon-α using fresh human PBMCs; conditions: PBMC, two donors, 24 hours incubation, percentage of 2 μM resiquimod control, read-out: pEC50 for induction of IFN-α (converted)
# Method: (§1) Assay for the Induction of Interferon-α and TNF-α using Fresh Human Peripheral Blood Mononuclear Cells (PBMCs)
# (§2) Compounds were dissolved and serially diluted in DMSO to give 100× the required concentration range using a Biomek 2000. 1 μL of test compound was transferred into 96-well tissue culture plates using a Biomek FX. Each compound was assayed in duplicate for each donor. Each plate contained a dilution series of the TLR7/8 agonist resiquimod as standard and Column 11 contained 1 μL of 200 μM resiquimod (giving a 2 μM final concentration, used to define the approximate maximal response to resiquimod).
# (§3) Blood samples from two human donors were collected into sodium heparin (10 U/mL). 25 mL volumes of whole blood were overlaid onto 15 mL Histopaque in Leucosep tubes which were centrifuged at 800 g for 20 min and the band at the plasma/histopaque interface carefully removed. The collected cells were centrifuged at 2500 rpm for 10 min and the pellet resuspended in 10 mL of media (RPMI 1640 (Low endotoxin) supplemented with 10% v/v foetal calf serum (FCS, low endotoxin) 100 U/mL penicillin G, 100 μg/mL streptomycin, 10 mM L-glutamine and 1× non-essential amino acids). A 1:20 dilution of the cells was prepared using trypan blue and the cells counted using a haemocytometer. The PBMCs were diluted to give a final concentration of 2×10^6/mL and 100 μL of this cells suspension was added to wells containing 1 μL of diluted test compound.
# (§4) Incubation and Assays for Interferon-α and TNF-α
# (§5) The cell preparations were incubated for 24 hours (37° C., 95% air, 5% CO2) after which a sample of the supernatant was removed using the Biomek FX and assayed for both IFN-α and TNF-α using the MSD (Mesoscale Discovery) electrochemiluminescence assay platform. The IFN-α assay was carried out similarly to that described above. […]
# (§6) Cytokine released was expressed as a percentage of the 2 μM resiquimod control (column 11). This percentage was plotted against compound concentration and the pEC50 for the response determined by non-linear least squares curve fitting. […]
# TNF-α = assay: Induction of TNF-α using fresh human PBMCs; conditions: PBMC, two donors, 24 hours incubation, percentage of 2 μM resiquimod control, read-out: pEC50 for induction of TNF-α (converted)
# Method: as §1, §2, §3, §4, §5, §6
EC50 (IFN-α) [nM],EC50 (TNF-α) [nM],SMILES,EC50 (Interferon-α) [nM]
,,"CCCCOc1nc(N)c2[nH]c(=O)n(CCCC3CCCCN3CCO)c2n1 (centres unmarked) [Example 1, 6-Amino-2-(butyloxy)-9-[3-[1-(2-hydroxyethyl)-2-piperidinyl]propyl]-7,9-dihydro-8H-purin-8-one]",< 1580
63.1,15800,"CCCCOc1nc(N)c2[nH]c(=O)n(CC3CCCN(CCO)C3)c2n1 (centres unmarked) [Example 2, 6-Amino-2-(butyloxy)-9-{[1-(2-hydroxyethyl)-3-piperidinyl]methyl}-7,9-dihydro-8H-purin-8-one]",< 1580
,,"CCCCOc1nc(N)c2[nH]c(=O)n(CCC3CCCN(CCO)C3)c2n1 (centres unmarked) [Example 3, 6-Amino-2-(butyloxy)-9-{2-[1-(2-hydroxyethyl)-3-piperidinyl]ethyl}-7,9-dihydro-8H-purin-8-one]",< 1580
,,"CCCCOc1nc(N)c2[nH]c(=O)n(CCCC3CCCN(CCO)C3)c2n1 (centres unmarked) [Example 4, 6-Amino-2-(butyloxy)-9-{3-[1-(2-hydroxyethyl)-3-piperidinyl]propyl}-7,9-dihydro-8H-purin-8-one]",< 1580
,,"CCCCOc1nc(N)c2[nH]c(=O)n(CCCCC3CCCN(CCO)C3)c2n1 (centres unmarked) [Example 5, 6-Amino-2-(butyloxy)-9-{4-[1-(2-hydroxyethyl)-3-piperidinyl]butyl}-7,9-dihydro-8H-purin-8-one]",< 1580
,,"CCCCOc1nc(N)c2[nH]c(=O)n(CC3CCN(CCO)CC3)c2n1 [Example 6, 6-Amino-2-(butyloxy)-9-{[1-(2-hydroxyethyl)-4-piperidinyl]methyl}-7,9-dihydro-8H-purin-8-one]",< 1580
,,"CCCCOc1nc(N)c2[nH]c(=O)n(CCC3CCN(CCO)CC3)c2n1 [Example 7, 6-Amino-2-(butyloxy)-9-{2-[1-(2-hydroxyethyl)-4-piperidinyl]ethyl}-7,9-dihydro-8H-purin-8-one]",< 1580
,,"CCCCOc1nc(N)c2[nH]c(=O)n(CCCC3CCN(CCO)CC3)c2n1 [Example 8, 6-Amino-2-(butyloxy)-9-{3-[1-(2-hydroxyethyl)-4-piperidinyl]propyl}-7,9-dihydro-8H-purin-8-one]",< 1580
,,"CCCCOc1nc(N)c2[nH]c(=O)n(CCCCC3CCN(CCO)CC3)c2n1 [Example 9, 6-Amino-2-(butyloxy)-9-{4-[1-(2-hydroxyethyl)-4-piperidinyl]butyl}-7,9-dihydro-8H-purin-8-one]",< 1580
0.501,3160,"CCCCOc1nc(N)c2[nH]c(=O)n(CCCCCC3CCN(CCO)CC3)c2n1 [Example 10, 6-Amino-2-(butyloxy)-9-{5-[1-(2-hydroxyethyl)-4-piperidinyl]pentyl}-7,9-dihydro-8H-purin-8-one]",< 1580
,,"CCCCOc1nc(N)c2[nH]c(=O)n(CCCN3CCN(CCO)CC3)c2n1 [Example 11, 6-Amino-2-(butyloxy)-9-{3-[4-(2-hydroxyethyl)-1-piperazinyl]propyl}-7,9-dihydro-8H-purin-8-one]",< 1580
,,"CCCCNc1nc(N)c2[nH]c(=O)n(CCCN3CCN(CCO)CC3)c2n1 [Example 12, 6-Amino-2-(butylamino)-9-[3-[4-(2-hydroxyethyl)-1-piperazinyl]propyl]-7,9-dihydro-8H-purin-8-one]",< 1580
,,"CCCCOc1nc(N)c2[nH]c(=O)n(CCCCN3CCN(CCO)CC3)c2n1 [Example 13, 6-Amino-2-(butyloxy)-9-{4-[4-(2-hydroxyethyl)-1-piperazinyl]butyl}-7,9-dihydro-8H-purin-8-one]",< 1580
,,"CCCCNc1nc(N)c2[nH]c(=O)n(CCCCN3CCN(CCO)CC3)c2n1 [Example 14, 6-Amino-2-(butylamino)-9-{4-[4-(2-hydroxyethyl)-1-piperazinyl]butyl}-7,9-dihydro-8H-purin-8-one]",< 1580
,,"CCCCOc1nc(N)c2[nH]c(=O)n(CCCCCN3CCN(CCO)CC3)c2n1 [Example 15, 6-Amino-2-(butyloxy)-9-{5-[4-(2-hydroxyethyl)-1-piperazinyl]pentyl}-7,9-dihydro-8H-purin-8-one]",< 1580
,,"CCCCOc1nc(N)c2[nH]c(=O)n(CCCCCN3CCN(CCOC)CC3)c2n1 [Example 16, 6-Amino-2-(butyloxy)-9-(5-{4-[2-(methyloxy)ethyl]-1-piperazinyl}pentyl)-7,9-dihydro-8H-purin-8-one]",< 1580
15.8,5010,"CCCCOc1nc(N)c2[nH]c(=O)n(CCCCCN3CCN(CCOCC)CC3)c2n1 [Example 17, 6-Amino-2-(butyloxy)-9-(5-{4-[2-(ethyloxy)ethyl]-1-piperazinyl}pentyl)-7,9-dihydro-8H-purin-8-one]",< 1580
